# Measurements: PMC6946680, “Modulation of brain cation-Cl^− cotransport via the SPAK kinase inhibitor ZT-1a” (Nature Communications, 2020)
# Where “and” joins values, the source holds several entries; their conditions need not be identical. Equal entries are not always repeated.
# Assays:
# NKCC1 pThr203/207/212 [1] = assay: Pharmacodynamic study, NKCC1 phosphorylation in kidney of naive mice; format: in vivo, mouse; details: Fig S8b (kidney)
# Procedure: (§1) To define ZT-1a efficacy in naive mice in vivo, we examined phosphorylation of SPAK, NKCC1, and NCC in kidney, and phosphorylation of SPAK, NKCC1, and KCC3 in brain, after intraperitoneal (i.p.) administration of either ZT-1a (10, 30, 50, and 100 mg/kg) or Closantel (50 mg/kg as a reference). […]
# (§2) 5. Pharmacodynamic (PD) study
# (§3) Male C57BL/6j wild-type mice (6 weeks old, Charles River Laboratories Edinburgh UK) were treated with ZT-1a (in DMSO, Sigma) by subcutaneous injection at doses of 0, 3, 10, 30, 50 and 100 mg/kg. 50 mg/kg Closantel was administered as a comparative control. Vehicle control mice were treated with an equal volume of DMSO solution. One hour after administration, mice were sacrificed by cervical dislocation, and kidney and brain tissues were rapidly dissected and snap-frozen in liquid nitrogen. Age- […]
# (§4) free conditions at the University of Dundee (UK) as described in our recent study1. Animal experiments and breeding were approved by the University of Dundee ethical committee and performed under a […]
# (§5) Policy on the Care, Welfare and Treatment of Animals, and regulations set by the University of Dundee and the U.K. Home Office. […]
# (§6) Brain and kidney tissues were collected at 60 min post injection, and proteins subjected to immunoblot were probed with antibodies specific for phosphorylated forms of SPAK,
# C57BL/6J mice = assay: Kaplan-Meier survival of naive and ischemic stroke mice at 25 mg/kg; format: in vivo, mouse
# Procedure: We compared the neuroprotective efficacy of Closantel with that of the pan-WNK-kinase inhibitor WNK463. […] Moreover, toxicity of Closantel and ZT-1a at 25 mg/kg in naive and ischemic stroke mice was reflected in Kaplan–Meier survival curves (Supplementary Fig. 12).
# Supplemental Fig. 12 Kaplan-Meier survival curve of naïve and ischemic stroke mice treated with […]
# Normal naïve C57BL/6J mice, or mice after tMCAO randomly received Closantel or ZT-1a treatment […]
# was monitored for 0-7 days post-treatment. No mortality was detected in the naïve mice treated with Closantel or ZT-1a. However, all ischemic stroke mice treated with Closantel died within 2 days, with a […]
# median survival of 1 day. […]
# days). n = 3 per group (naïve+Closantel or naive+ZT-1a), n = 6 per group (tMCAO+vehicle or tMCAO+Closantel or tMCAO+ZT-1a), *p < 0.05, Log-rank test.
# [2] = Immunoblot of KCC site 1 phosphorylation (KCC3 Thr991) in HEK-293 cells transfected with FLAG-KCC3; format: cell-based, human
# SPAK phosphorylation = assay: Pharmacodynamic study, SPAK phosphorylation in kidney of naive mice; format: in vivo, mouse; details: Fig S8b (kidney)
# Procedure: as §1, §2, §3, §4, §5, §6
# KCC3 pThr1048 = assay: Pharmacodynamic study, KCC3 phosphorylation in brain of naive mice; format: in vivo, mouse; details: for pTh1048 / KCC3: Fig S8a (brain)
# Procedure: as §1, §2, §3, §4, §5, §6
# NKCC1 pThr203/207/212 [3] = assay: Immunoblot of NKCC1 p-Thr203/Thr207/Thr212 in HEK-293 cells; format: cell-based, human; details: for pNKCC1/NKCC1 band intensity ratio: single replicates
# SPAK pSer373 = assay: Immunoblot of SPAK/OSR1 p-Ser373/Ser325 in HEK-293 cells; format: cell-based, human; details: for pSPAK/SPAK band intensity ratio: single replicates
# [4] = molecular target: human SPAK 452-547(C-term) with WNK peptide (RFQV) (Homo sapiens, UniProt Q9UEW8); assay: Fluorescence polarization of SPAK–WNK peptide interaction; format: binding; details: for Inhibitor vs SPAK FL (fluorescence polarization signal): Fig S5b
smiles,measurement,setting,value
"Cc1cc(C(C#N)c2ccc(Cl)cc2)c(Cl)cc1NC(=O)c1cc(Cl)ccc1O (stereo not drawn) [ZT-1a, 5-chloro-N-(5-chloro-4-((4-chlorophenyl)(cyano)methyl)-2-methylphenyl)-2-hydroxybenzamide]",pTh203.207.212 / NKCC1,NKCC1 pThr203/207/212 [1]; 10 mg/kg,1.13 and 1.26 and 1.54 and 1.32
same,pTh203.207.212 / NKCC1,NKCC1 pThr203/207/212 [1]; 30 mg/kg,1.14 and 0.89 and 0.64 and 0.77
same,pTh203.207.212 / NKCC1,NKCC1 pThr203/207/212 [1]; 100 mg/kg,0.41 and 0.27 and 0.44 and 0.32
same,mortality in naive mice,"C57BL/6J mice; 25 mg/kg i.p., 0-7 days, n = 3",No mortality
same,survival of ischemic stroke mice,"C57BL/6J mice; 25 mg/kg i.p., Kaplan–Meier, n = 6",survived longer than Closantel-treated mice
same,median survival of ischemic stroke mice,"C57BL/6J mice; C57BL/6J, mouse, in vivo",4 days
same,T906/KCC2 band intensity ratio,"[2]; Hypotonic low Cl, 1 uM, single replicates",0.214 and 0.239 and 0.189 and 0.203
same,T906/KCC2 band intensity ratio,"[2]; Hypotonic low Cl, 3 uM, single replicates",0.058 and 0.074 and 0.03 and 0.063
same,T906/KCC2 band intensity ratio,"[2]; Hypotonic low Cl, 10 uM, single replicates",0.03 and 0.034 and 0.02 and 0.026
same,T906/KCC2 band intensity ratio,"[2]; Isotonic control, 1 uM, single replicates (Fig 2 source data)",0.356 and 0.264 and 0.316 and 0.279
same,T906/KCC2 band intensity ratio,"[2]; Isotonic control, 3 uM, single replicates",0.166 and 0.176 and 0.153 and 0.142
same,T906/KCC2 band intensity ratio,"[2]; Isotonic control, 10 uM, single replicates",0.065 and 0.041 and 0.054 and 0.049
same,pSer373 / SPAK,SPAK phosphorylation; 10 mg/kg,0.9 and 1.08 and 0.92 and 0.99
same,pSer373 / SPAK,SPAK phosphorylation; 30 mg/kg,0.85 and 0.8 and 0.86 and 0.76
same,pSer373 / SPAK,SPAK phosphorylation; 50 mg/kg,0.56 and 0.45 and 0.51 and 0.41
same,pSer373 / SPAK,SPAK phosphorylation; 100 mg/kg,0.37 and 0.44 and 0.38 and 0.4
same,KCC3 phosphorylation (pThr1048) in naive brains,KCC3 pThr1048; 60 min after administration,neither drug had reduced
same,pTh1048 / KCC3,KCC3 pThr1048; 10 mg/kg,1.01 and 0.99 and 1 and 0.95
same,pTh1048 / KCC3,KCC3 pThr1048; 30 mg/kg,1.05 and 0.97 and 0.9 and 0.96
same,pTh1048 / KCC3,KCC3 pThr1048; 50 mg/kg,0.87 and 0.92 and 1.06 and 0.97
same,pTh1048 / KCC3,KCC3 pThr1048; 100 mg/kg,0.94 and 0.87 and 0.99 and 0.9
same,inhibition at 1 µM,"NKCC1 pThr203/207/212 [3]; Homo sapiens, HEK293, read-out: inhibition of phosphorylation of NKCC1 p-Thr203/207/212, 1 µM ZT-1a, HEK-293 cells, n = 4",72 ± 5.2%
same,pNKCC1/NKCC1 band intensity ratio,"NKCC1 pThr203/207/212 [3]; Hypotonic low Cl, 1 uM",0.292 and 0.311 and 0.247 and 0.273
same,pNKCC1/NKCC1 band intensity ratio,"NKCC1 pThr203/207/212 [3]; Hypotonic low Cl, 3 uM",0.113 and 0.104 and 0.103 and 0.1063
same,pNKCC1/NKCC1 band intensity ratio,"NKCC1 pThr203/207/212 [3]; Hypotonic low Cl, 10 uM",0.004 and 0.007 and 0.005 and 0.003
same,pNKCC1/NKCC1 band intensity ratio,"NKCC1 pThr203/207/212 [3]; Isotonic control, 1 uM",0.133 and 0.075 and 0.106 and 0.093
same,pNKCC1/NKCC1 band intensity ratio,"NKCC1 pThr203/207/212 [3]; Isotonic control, 3 uM",0.048 and 0.046 and 0.043 and 0.041
same,pNKCC1/NKCC1 band intensity ratio,"NKCC1 pThr203/207/212 [3]; Isotonic control, 10 uM",0.006 (2×) and 0.004 and 0.005
same,pSPAK/SPAK band intensity ratio,"SPAK pSer373; Hypotonic low Cl, 1 uM",0.189 and 0.226 and 0.157 and 0.173
same,pSPAK/SPAK band intensity ratio,"SPAK pSer373; Hypotonic low Cl, 3 uM",0.081 and 0.093 and 0.086 and 0.0963
same,pSPAK/SPAK band intensity ratio,"SPAK pSer373; Hypotonic low Cl, 10 uM",0.038 and 0.034 and 0.031 and 0.043
same,pSPAK/SPAK band intensity ratio,"SPAK pSer373; Isotonic control, 1 uM",0.113 and 0.123 and 0.106 and 0.12
same,pSPAK/SPAK band intensity ratio,"SPAK pSer373; Isotonic control, 3 uM",0.067 and 0.051 and 0.053 and 0.059
same,pSPAK/SPAK band intensity ratio,"SPAK pSer373; Isotonic control, 10 uM",0.031 and 0.034 and 0.024 and 0.028
same,inhibition of SPAK phosphorylation at Ser373,"SPAK pSer373; ~3–10 µM ZT-1a, n = 3",70 ± 3.8%
same,IC50,"[4]; 10 nM Lumino-Green WNK peptide, read-out: IC50, decrease in fluorescence polarization (SPAK–WNK peptide)",325 µM
same,Inhibitor vs SPAK FL (fluorescence polarization signal),[4]; Inhibitor 1e-5 μM,140.3 and 136 and 147.2
same,Inhibitor vs SPAK FL (fluorescence polarization signal),[4]; Inhibitor 0.0001 μM,142.6 and 130.1 and 143.7
same,Inhibitor vs SPAK FL (fluorescence polarization signal),[4]; Inhibitor 0.001 μM,141.9 and 135.2 and 145.3
same,Inhibitor vs SPAK FL (fluorescence polarization signal),[4]; Inhibitor 0.003 μM,148.6 and 138.3 and 144.2
same,Inhibitor vs SPAK FL (fluorescence polarization signal),[4]; Inhibitor 0.01 μM,150.4 and 140.8 and 146.2
same,Inhibitor vs SPAK FL (fluorescence polarization signal),[4]; Inhibitor 0.03 μM,151.3 and 139.2 and 146.8
same,Inhibitor vs SPAK FL (fluorescence polarization signal),[4]; Inhibitor 0.1 μM,152.2 and 141.6 and 147.3
same,Inhibitor vs SPAK FL (fluorescence polarization signal),[4]; Inhibitor 0.3 μM,151.7 and 143.1 and 150.3
same,Inhibitor vs SPAK FL (fluorescence polarization signal),[4]; Inhibitor 1 μM,154.3 and 140.8 and 151.4
same,Inhibitor vs SPAK FL (fluorescence polarization signal),[4]; Inhibitor 3 μM,149 and 139.7 and 147.8
same,Inhibitor vs SPAK FL (fluorescence polarization signal),[4]; Inhibitor 10 μM,149.9 and 139.1 and 147.3
same,Inhibitor vs SPAK FL (fluorescence polarization signal),[4]; Inhibitor 100 μM,127.1 and 121.5 and 130.6
